# Assays:
# Liver [1] = assay: Biodistribution in liver of BALB/C mouse at 1.7 x 10^-6 mol/kg, iv as single dose measured up to 60 mins by fluorescence imaging technique; type: ADME, organism-based; conditions: in vivo, 1 h
# Liver [2] = assay: Biodistribution in liver of BALB/C mouse at 1.7 x 10^-6 mol/kg, iv as single dose measured at 4 hrs by fluorescence imaging technique; type: ADME, organism-based; conditions: in vivo
# Kidney = assay: Biodistribution in Kidney of BALB/C mouse at 1.7 x 10^-6 mol/kg, iv as single dose measured at 4 hrs by fluorescence imaging technique; type: ADME, organism-based; conditions: in vivo
# Duodenum = assay: Biodistribution in duodenum of BALB/C mouse at 1.7 x 10^-6 mol/kg, iv as single dose measured at 4 hrs by fluorescence imaging technique; type: ADME, organism-based; conditions: in vivo
# Mus musculus [3] = assay: Biodistribution in bone joint of BALB/C mouse at 1.7 x 10^-6 mol/kg, iv as single dose measured at 24 hrs by fluorescence imaging technique; type: ADME, organism-based, Bone element; conditions: in vivo
# Mus musculus [4] = assay: Biodistribution in leg bone of BALB/C mouse at 1.7 x 10^-6 mol/kg, iv as single dose measured at 24 hrs by fluorescence imaging technique; type: ADME, organism-based, Bone element; conditions: in vivo
# Mus musculus [5] = assay: Biodistribution in hip bone of BALB/C mouse at 1.7 x 10^-6 mol/kg, iv as single dose measured at 24 hrs by fluorescence imaging technique; type: ADME, organism-based, Bone of hip region; conditions: in vivo
# Mus musculus [6] = assay: Biodistribution in bone joint of BALB/C mouse at 1.7 x 10^-6 mol/kg, iv as single dose measured up to 8 days by fluorescence imaging technique; type: ADME, organism-based, Bone element; conditions: in vivo, 192 h
# Mus musculus [7] = assay: Biodistribution in bone joint of BALB/C mouse at 1.7 x 10^-6 mol/kg, iv as single dose measured at 16 days by fluorescence imaging technique; type: ADME, organism-based, Bone element; conditions: in vivo, 384 h
# Mus musculus [8] = assay: Biodistribution in soft tissue of BALB/C mouse at 1.7 x 10^-6 mol/kg, iv as single dose measured at 24 hrs by fluorescence imaging technique; type: ADME, organism-based; conditions: in vivo
SMILES,Drug uptake (Liver [1]),Drug uptake (Liver [2]),Drug uptake (Kidney),Drug uptake (Duodenum),Drug uptake (Mus musculus [3]),Drug uptake (Mus musculus [4]),Drug uptake (Mus musculus [5]),Drug uptake (Mus musculus [6]),Drug uptake (Mus musculus [7]),Drug uptake (Mus musculus [8])
CC1(C)C(/C=C/C=C/C=C/C=C2\N(CCCCC(=O)O)c3ccc4ccccc4c3C2(C)C)=[N+](CCCCS(=O)(=O)[O-])c2ccc3ccccc3c21,Active,Active,Active,Active,Not Active,–,–,–,–,–
CC1(C)C(/C=C/C=C/C=C/C=C2\N(CCCCC(=O)O)c3ccc4ccccc4c3C2(C)C)=[N+](CCCCC(=O)[O-])c2ccc3ccccc3c21,Active,Active,Active,Active,Not Active,–,–,–,–,–
CC1(C)C(/C=C/C=C/C=C/C=C2\N(CCCCC(=O)CCCC(O)(P(=O)([O-])O)P(=O)(O)O)c3ccc4ccccc4c3C2(C)C)=[N+](CCCCS(=O)(=O)[O-])c2ccc3ccccc3c21.[Na+],–,–,–,–,–,Active,Active,Active,Not Active,Not Active
CC1(C)C(/C=C/C=C/C=C/C=C2/N(CCCCS(=O)(=O)[O-])c3ccc4ccccc4c3C2(C)C)=[N+](CCCCS(=O)(=O)[O-])c2ccc3ccccc3c21.[Na+] [INDOCYANINE GREEN],Active,Active,Active,Active,Active,–,–,–,–,–

# Reference: ChEMBL document CHEMBL1828599, “Synthesis, fluorescence and biodistribution of a bone-targeted near-infrared conjugate” (Eur J Med Chem, 2011)
